Measurements taken from patent publication EP1105728B1, “MODULATING MULTIPLE LINEAGE KINASE PROTEINS” (CEPHALON, INC., priority 1998, dated 2000).
Where two headings read alike, the source gives them in different places. Starred links: 1 amine or outer side, 2 acyl side, 3 side chain; linkers in the order of their positions; H or OH if unused. Positions of bridges follow the written chain, without caps; N, C: chain ends. Non-standard residues stand in square brackets, D forms with d. Residues, ends and D or L forms follow the SMILES beside them. Chains are numbered I, II in the order given. Actinocin(9to1) = Cc1c2oc3c(C)ccc(C(=O)[*:1])c3nc-2c(C(=O)[*:2])c(N)c1=O; NMeV = CN[C@H](C(=O)O)C(C)C; Sar = CNCC(=O)O

Assays:
TNF-α = assay: Induction of TNF-α by LPS in THP-1 cells (ELISA); assay type: cell-based; details: for TNF-α in the medium: inhibitor 30 min prior to LPS, medium collected 3 hr after LPS; for IC50: Homo sapiens, THP-1, LPS 2 µg/ml, serum-free medium, read-out: THP-1 Cells TNF-α IC50
Method: THP-1 cells were grown in RPMI 1640 medium supplemented with 10% fetal bovine serum. LPS (E.coli serotype 0111.B4, TCA extracted) was purchased from Sigma and dissolved in PBS. ELISA kits for assaying IL-1 and TNF-α were purchased from Boerhinger-Mannheim and assays on THP-1 culture medium were performed as directed by the manufacturer. Standard curves according to directions were obtained with each assay.
Experiments were performed in 12 well culture plates with either 1 or 2 ml of THP-1 cells at 4 X 10^5 cells/ml. IL-1 and TNF-α were induced by the addition of LPS to the culture medium and the medium collected at various times thereafter for cytokine assay. Cells were removed by centrifugation and the supernatants frozen at -70°C until assay. To minimize costs experiments were performed in duplicate cultures and the duplicate supernatants were pooled after centrifugation. Each pooled supernatant was assayed in duplicate. Stock solutions of indolo- and fused pyrrolocarbazoles in 100% DMSO were diluted to the desired concentrations in either medium containing 10% fetal bovine serum or in medium containing 0.5 mg/ml BSA. Unless otherwise stated, compounds were added to the THP-1 cells 1 hr prior to the addition of LPS.

JNK = JNK activity immunoprecipitated from THP-1 cells; assay type: cell-based; details: Homo sapiens, read-out: THP-1 Cells JNK % inh. 500 nM
Method: Assays for JNK activity were performed after immunoprecipitating the JNK protein from an extract of lysed THP-1 cells. Pelleted THP-1 cells were lysed on ice for 15 min in 500 µl of Frac buffer (10 mM Tris-Hcl, pH 7.5,50 mM NaCl, 30 µM sodium pyrophosphate, 1 mg/ml BSA, 1% Triton-X-100). The extract was centrifuged for 10 min at 14K and 5 µl of JNK antibody (Santa Cruz) was added to the supernatant. The extract was rotated for 60 min at 4°C, 75 µl of washed protein A Sepharose (20% w/v in Frac) added and the extract rotated another 30 min to bind the antibody complex to the protein A Sepharose. The protein A Sepharose was washed twice with Frac buffer, once with 20 mM Hepes, pH 7.6, 20 mM MgCl2, 2 mM DTT, then incubated for 15 min at 30° C in 30 µl of kinase buffer (20 mM hepes, 20 mM MgCl2, 2 MM DTT, 1 µg recombinant c-jun, and 2 µM ATP-γ-^32P, 2 µCi. The reaction was terminated by the addition of 10 µl of 4X SDS gel loading buffer, heated for 3 min at 80° C, and the proteins were analyzed on a 10% SDS gel. The gel was dried, exposed to a Phosphorimager plate, and the radioactive bands were analyzed on a Phosphorimager.

MLK-3 = molecular target: T1, MLK-3 (Homo sapiens, UniProt Q16584); assay: JNK activity (immunoprecipitation/kinase assay) in Cos7 cells overexpressing MLK-3 and HA-JNK1; assay type: cell-based
T1 construct: A full length cDNA of human MLK-3, MLK-2, or mouse DLK; expressed in transfected cells; host or cells: Cos7
Method: Cos7 cells were plated at 80% confluency and transfected with 2 ug each of cDNA constructs using lipofectamine as recommended by the provider (Gibco BRL, Gaithersburg, MD). A full length cDNA of human MLK-3, MLK-2, or mouse DLK or a partial human MLK-1 as described above, and a full length Hemagluttinin A-tagged human JNK1, kindly provided by J. Silvio Gutkind (NIH, Bethesda, MD), were subcloned into the pcDNA3 vector (Invitrogen, San Diego, CA). […] JNK activity from the lysate was assayed by an immunoprecipitation/kinase assay as described below.
Lysate from Cos 7 cells was measured for protein concentration using the Micro BCA kit from Pierce (Rockford, IL) and equal amounts of protein were immunoprecipitated with the HA antibody for 1 hr at 4°C. Immunoprecipitates were pelleted by centrifugation in a microfuge centrifuge for 20 sec, resuspended in Triton buffer, washed by centrifugation 2 more times, followed by a final wash in Kinase buffer (20 mM Hepes pH 7.4,20 mM MgCl2, 2 mM dithiothreitol, 0.1 mM sodium vanadate). The immunoprecipitate was resuspended in kinase buffer containing 1 µM ATP and 5 µCi [γ-^32P]ATP and substrate (1 µg/sample of AP-1 ) and incubated for 15 min at 30°C. […] Samples were heated to 80°C for 5 min and loaded onto 10% SDS-polyacrylamide gels. Proteins were separated by electrophoresis. The gel was dried and quantitation of radioactivity in the AP-1 substrate was performed on a Molecular Dynamics Phosphorimager (Sunnyvale, Ca.).
To determine whether inhibition of the JNK pathway regulated by these kinases correlated with neurotrophic compounds, we evaluated the effect of compounds on JNK activity in Cos7 cells overexpressing HA-JNK and MLK3. After a 48 hr transfection period, the cells were incubated with compounds at 500 nM for 2hr followed by cellular lysis. Lysate was immunoprecipitated and kinase activity measured as previously described. […]

MKK4 = assay: MPTP model: phosphorylated MKK4 in the substantia nigra (immunoblot, ELISA); assay type: in vivo, mice; details: pretreatment; Compound III-3 1 mg/kg (Fig. 22c)
Method: MPTP was administered at a dose (40 mg/kg) that produces loss of striatal dopaminergic terminals and cell bodies in the substantia nigra. Tyrosine hydroxylase was used as a marker for dopamenergic nerve terminals in the substantia nigra. […] Since Compound III-3 is a known inhibitor of MLK3, activation of a downstream substrate of MLK3 was measured in MPTP- treated mice. Levels of phosphorylated MKK4 were measured using a phospho-MKK4 specific antibody (New England Biolabs, Beverly, MA) that recognizes the monophosphorylated form of MKK4 by either immunoblot (Fig. 22b) or ELISA (Fig. 22c). MPTP administration elevated levels of phosphorylated MKK4 in the substantia nigra by up to 5 fold over control levels (Fig. 22b). Peak elevations occurred 4 hrs after administration ofMPTP and coincided with peak CNS levels of MPP^+.

DLK = molecular target: T2, DLK (Mus musculus, UniProt Q60700); assay: JNK activity (immunoprecipitation/kinase assay) in Cos7 cells overexpressing DLK and HA-JNK1; assay type: cell-based; details: COS-7, 500 nM for 2 hr; replicate values in one cell; read-out: Cos-7 Cells DLK % JNK Inhib. @ 500nM
T2 construct: A full length cDNA of human MLK-3, MLK-2, or mouse DLK; expressed in transfected cells; host or cells: Cos7
T2 sequence (Q60700 1-888): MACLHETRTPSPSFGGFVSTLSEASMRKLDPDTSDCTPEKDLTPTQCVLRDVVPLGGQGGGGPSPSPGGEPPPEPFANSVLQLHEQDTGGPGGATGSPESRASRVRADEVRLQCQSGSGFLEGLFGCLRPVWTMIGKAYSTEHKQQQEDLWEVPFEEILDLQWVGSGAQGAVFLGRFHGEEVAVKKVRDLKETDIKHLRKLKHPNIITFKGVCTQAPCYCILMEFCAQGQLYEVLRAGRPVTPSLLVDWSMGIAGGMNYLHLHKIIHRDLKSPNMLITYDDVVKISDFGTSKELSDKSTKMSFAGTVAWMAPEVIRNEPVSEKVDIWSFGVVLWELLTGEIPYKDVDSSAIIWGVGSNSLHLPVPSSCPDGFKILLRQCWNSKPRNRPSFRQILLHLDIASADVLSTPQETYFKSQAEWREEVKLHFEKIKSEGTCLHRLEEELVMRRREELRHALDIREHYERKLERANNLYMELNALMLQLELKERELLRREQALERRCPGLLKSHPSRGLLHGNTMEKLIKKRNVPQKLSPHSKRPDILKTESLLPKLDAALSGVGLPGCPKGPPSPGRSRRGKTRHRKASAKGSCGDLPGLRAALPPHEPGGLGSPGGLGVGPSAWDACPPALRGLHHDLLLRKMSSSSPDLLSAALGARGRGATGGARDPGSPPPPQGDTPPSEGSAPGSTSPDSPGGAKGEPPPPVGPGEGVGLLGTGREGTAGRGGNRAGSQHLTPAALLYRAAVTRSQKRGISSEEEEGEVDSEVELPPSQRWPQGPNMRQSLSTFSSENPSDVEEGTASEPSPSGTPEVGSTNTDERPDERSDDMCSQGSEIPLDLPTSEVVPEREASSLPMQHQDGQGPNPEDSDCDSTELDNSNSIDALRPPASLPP
Method: Cos7 cells were plated at 80% confluency and transfected with 2 ug each of cDNA constructs using lipofectamine as recommended by the provider (Gibco BRL, Gaithersburg, MD). A full length cDNA of human MLK-3, MLK-2, or mouse DLK or a partial human MLK-1 as described above, and a full length Hemagluttinin A-tagged human JNK1, kindly provided by J. Silvio Gutkind (NIH, Bethesda, MD), were subcloned into the pcDNA3 vector (Invitrogen, San Diego, CA). After a 48 hr transfection, the cells were treated with 0.025% DMSO or 500 nM of the indicated compounds for 2 hr followed by lysis in 0.4 ml Triton buffer (1% Triton X-100, 50 mM sodium chloride, 10 mM Tris (pH 7.6), 0.1 % bovine serum albumin, 30 uM sodium pyrophosphate, 50 mM sodium fluoride, 20 ug/ml aprotinin, 1 mM phenylmethylsulfonylfluoride, 1 mM sodium vanadate). JNK activity from the lysate was assayed by an immunoprecipitation/kinase assay as described below.
Lysate from Cos 7 cells was measured for protein concentration using the Micro BCA kit from Pierce (Rockford, IL) and equal amounts of protein were immunoprecipitated with the HA antibody for 1 hr at 4°C. […] The gel was dried and quantitation of radioactivity in the AP-1 substrate was performed on a Molecular Dynamics Phosphorimager (Sunnyvale, Ca.). […]

[1] = COS-7, 500 nM for 2hr, control is JNK activity in the presence of DMSO, read-out: % Inhibition of JNK Activity (average) MLK3 in Cos7 cells
[2] = COS-7, read-out: Overexpressed MLK3 in Cos 7 Cells JNK % inh. 500 nM

T1 sequence (Q16584 whole entry): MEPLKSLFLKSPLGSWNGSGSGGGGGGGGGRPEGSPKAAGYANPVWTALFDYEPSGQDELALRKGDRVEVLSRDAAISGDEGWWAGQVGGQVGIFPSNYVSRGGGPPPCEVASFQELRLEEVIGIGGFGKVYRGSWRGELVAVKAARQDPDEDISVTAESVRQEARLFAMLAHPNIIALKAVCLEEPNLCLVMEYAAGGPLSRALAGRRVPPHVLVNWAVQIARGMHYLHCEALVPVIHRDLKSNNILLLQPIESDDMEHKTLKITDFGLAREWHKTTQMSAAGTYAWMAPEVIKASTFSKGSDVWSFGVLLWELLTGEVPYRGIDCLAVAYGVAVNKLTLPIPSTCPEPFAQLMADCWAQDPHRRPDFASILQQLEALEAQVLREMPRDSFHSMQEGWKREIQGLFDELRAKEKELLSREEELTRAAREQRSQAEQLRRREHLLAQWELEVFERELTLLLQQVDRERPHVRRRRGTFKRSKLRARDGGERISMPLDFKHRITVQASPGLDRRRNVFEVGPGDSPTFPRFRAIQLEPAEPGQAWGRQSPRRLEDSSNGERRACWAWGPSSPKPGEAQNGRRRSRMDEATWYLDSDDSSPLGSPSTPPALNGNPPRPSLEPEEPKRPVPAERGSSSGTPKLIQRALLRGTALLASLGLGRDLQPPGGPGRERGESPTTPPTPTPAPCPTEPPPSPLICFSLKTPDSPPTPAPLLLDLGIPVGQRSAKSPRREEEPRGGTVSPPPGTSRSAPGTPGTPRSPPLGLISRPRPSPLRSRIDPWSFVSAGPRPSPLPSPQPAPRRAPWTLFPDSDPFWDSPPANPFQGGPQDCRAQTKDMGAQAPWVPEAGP

SMILES	inhibition at 0.5 µM (JNK)	IC50 (TNF-α)	inhibition at 0.5 µM (MLK-3; [1])	inhibition at 0.5 µM (MLK-3; [2])	further results
C[C@@H]1C[C@@H]([C@H](O)CC2CC(=O)NC(=O)C2)C(=O)[C@@H](C)C1 [cycloheximide, reference compound]	–	–	–	–	TNF-α in the medium (TNF-α): no TNF-α was found
COC(=O)C1(OC)CC2OC1(C)n1c3ccccc3c3c4c(c5c6ccccc6n2c5c31)C(=O)NC4 (centres unmarked) [III-11]	51%	686 nM	92.5%	–	inhibition at 0.5 µM (MLK-3; COS-7, 500 nM, read-out: Overexpressed MLK3 in Cos 7 Cells JNK % inh. 500 nM): 92.5%
COC(=O)C1(O)CC2OC1(C)n1c3ccccc3c3c4c(c5c6ccccc6n2c5c31)C(=O)NC4 (centres unmarked) [III-9]	–	–	98.5%	–	–
CCCCCOC(=O)C1(O)CC2OC1(C)n1c3ccccc3c3c4c(c5c6ccccc6n2c5c31)C(=O)NC4 (centres unmarked) [III-4]	81%	462 nM	66%	66%	–
C#CCN(C)[C@H](C)Cc1ccccc1 [Compound 1-deprenyl, 1-deprenyl, reference compound]	–	–	–	–	MPTP-mediated MKK4 phosphorylation (MKK4): attenuated
CCNC(=O)Nc1ccc2c(c1)c1c3c(c4c5cc(CCc6ccccn6)ccc5n5c4c1n2C1CC(O)(C(=O)OC)C5(C)O1)CNC3=O (centres unmarked) [III-1]	93.5%	49.5 nM	84%	83.8%	–
COC(=O)C1(O)CC2OC1(C)n1c3ccccc3c3c4c(c5c6ccccc6n2c5c31)C(=O)NC4 (centres unmarked) [III^1]	–	–	–	–	inhibition at 0.5 µM (MLK-3; COS-7, 500 nM for 2 hr, replicate values in one cell, read-out: Cos-7 Cells MLK-3 % JNK Inhib. @ 500nM): 99%; inhibition at 0.5 µM (DLK): 63%
Cc1c2oc3c(C)ccc(C(=O)N[C@@H]4C(=O)N[C@H](C(C)C)C(=O)N5CCC[C@H]5C(=O)N(C)CC(=O)N(C)[C@@H](C(C)C)C(=O)O[C@@H]4C)c3nc-2c(C(=O)N[C@@H]2C(=O)N[C@H](C(C)C)C(=O)N3CCC[C@H]3C(=O)N(C)CC(=O)N(C)[C@@H](C(C)C)C(=O)O[C@@H]2C)c(N)c1=O [Actinomycin D, reference compound] (I: T[dV]P[Sar][NMeV] / II: T[dV]P[Sar][NMeV]; ester I:1-I:C, II:1-II:C; linker I:N-II:N via Actinocin(9to1))	–	–	–	–	TNF-α in the medium (TNF-α): no TNF-α was found
CCOCOCc1ccc2c(c1)c1c3c(c4c5cc(COCOCC)ccc5n5c4c1n2C1CC(O)(C(=O)OC)C5(C)O1)CNC3=O (centres unmarked) [III-2]	–	–	96%	–	–
COC(=O)C1(O)CC2OC1(C)n1c3ccc(CCSC)cc3c3c4c(c5c6cc(CCSC)ccc6n2c5c31)C(=O)NC4 (centres unmarked) [III-10]	48%	4300 nM	78%	78%	–
